In article PMC9321718 (Pharmaceuticals, 2022):
Converted amounts (≈) assume the structure as drawn.

How the values were obtained:
B. subtilis = assay: Synergy of adjuvant-MCD with Lev-MCD, growth inhibition zones in agar; type: cell-based, Bacillus subtilis; details: B. subtilis; for D, diameter of bacterial inhibition zone surrounding Lev–MCD with APAB-MCD: Lev-MCD + X-MCD (1:2), ±0.5; for ϕLev = (D/DLev)^2: ±0.1
Description: (§1) We obtained complex formulations containing adjuvants-MCD and Lev-MCD. These complexes were referred to as enhanced Lev. The synergy effect was studied at a constant concentration of Lev and a variable concentration of an enhancer. […] Based on the D/DLev ratio, the effectiveness of cooperative antibacterial action (ϕ) of the adjuvant and Lev was calculated. The fractional inhibitory concentration (FIC) parameter was introduced: at a fixed Lev concentration, the FIC of adjuvant corresponds to the minimum fractional adjuvant concentration at which the antibacterial effect was still manifest (MICadjuvant in the presence of Lev). The fractional inhibitory concentration index (FICI) characterizes the ratio of the active Lev and adjuvant concentrations to the MIC values of these substances individually: FICI=[Lev]/MIC(Lev)[…][adjuvant]/MIC(adjuvant) (see Section 3).
(§2) The FICI was interpreted as: synergism (<0.35), additivity (0.35–0.75), indifference (0.75–1.4), or antagonism (>1.4). FICI is designed to determine the type of Lev interaction with adjuvants.
(§3) The study of the antibacterial effect of Lev and adjuvants was carried out by (a) agar diffusion test and (b) broth micro-dilution method. (a) A measured 500 µL of 100-fold culture dilution was evenly distributed over a solid nutrient medium (LB, pH 7.2) on a Petri dish. After 20 min, agar disks with a diameter of 9 mm were removed from the cups and 50 µL of the test samples were placed in the formed wells at the required concentration in a sterile PBS buffer (see Section 3.3 (2)). After 30 min, Petri dishes were placed in a 37 °C thermostat. […] Minimum inhibitory concentrations (MICs) are determined as the infimum of multiple concentrations of an antimicrobial that inhibits the visible growth of a microorganism after overnight incubation. (b) According to the standard broth micro-dilution method, 200 µL of the overnight culture (5 × 10^6 CFU) was placed into a 96 micro-titer plate wells. Then 50 µL of tested samples was added. The range of tested Lev concentration was 4–200 ng/mL, adjuvants concentration was in the range of 0.008–2 mg/mL. […] The dependence of CFU (determined by A600) on the concentration of Lev, APAB or terpenoid (briefly X) was approximated according to the Boltzmann equation (Origin software): CFU = (control CFU)/(1 + exp(([X] − MIC50)/constant value)). […] In other words, the concentration at which the ordinate value (CFU) is equal to 50 or 10% of the control sample minus the background.
(§4) The FICI was interpreted as: synergism (<0.35), additivity (0.35–0.75), indifference (0.76–1.4), or antagonism (>1.4). The essence of this expression is to calculate the average change in the effective concentration compared to MIC. Note that the most important parameter corresponds to a decrease in MIC of Lev. However, FICI is designed to determine the type of interaction Lev with adjuvants.

[1] = Formation of inclusion complexes with MCD (UV spectroscopy, Hill linearization); type: physicochemical; details: MCD
Description: To optimize the system composition, similar experiments were carried out on the formation of EG and apiol inclusion complexes with HPCD (Figure S1). […] According to these changes, the dissociation constants of the EG–HPCD and apiol–HPCD complexes (Figure S2) were calculated by Hill’s equation (Table 1). […] The physicochemical parameters of the interaction of APAB and terpenoids (X) with CD were studied by determining the concentration of substances in the aqueous fraction ([APAB] + [APAB-MCD]) according to the calibration dependence (Figure 1C) for systems with a constant amount of the essential oil component X and the concentration gradient MCD (Table 1). Theta (θ) is a fraction of the bound substance X:θ = [X-MCD]/([X-MCD] + [X]) and was calculated based on the dependence of the absorption intensity X on the MCD concentration in the system in the form of a sigmoidal Hill curve with subsequent linearization (Section 3, Section 3.3 and Section 3.4).
The molar excess of CD varied from 0.04 to 10). Further, the complexes were incubated for 1 h at 37 °C and then centrifuged ([…], 15 min, Eppendorf tubes) to separate the insoluble fractions. Complexes were studied by UV and FTIR spectroscopy.
UV spectra of solutions (point 3.3.1) were recorded on the AmerSham Biosciences UltraSpec 2100 pro device (USA) three times in the range of 200–400 nm in a quartz cell Hellma 100–QS with an optical path of 1 cm. Background spectrum (5 mM sodium phosphate buffer (pH 6.2) with 50% EtOH) was subtracted as a blank.
(1) Calculation of the dissociation constants X–MCD and X–HPCD, where X is a “guest” compound, considering the equilibrium: Xaq + n MCDaq ↔ X·nMCDaq, where Kd = [MCDaq]^n · [Xaq]/[X·nMCDaq].
First, fitting of the curves of change of the analytical signal ξ (peak intensity or peak position) versus concentration of the MCD or HPCD or was carried out using the Hill equations: (1) ξ = ξ∞ · [MCD]^n/([MCD]^n + K^n), where ξ∞—horizontal asymptote; (2) ξ = ξ0 + (ξ∞–ξ0) · [MCD]^n/([MCD]^n + K^n). Second, calculation n and Kd values by Hill’s linearization in n-binding site model: lg (θ/(1 – θ)) = n · lg [L] – lg Kd, where θ = |(ξ – ξ0)/(ξ∞ − ξ0)|is a fraction of the bound substance. N in Hill equation—number of drug molecules per CD torus.
Calculations for the following items are performed when [MCD] = 0.01 M.

physchem = details: 22 °C, pH 6.2, water
Description: (3) Solubility of X in water C0 = [Xaq] = A/(ε · l) was determined by UV absorbance after centrifugation of samples (10 min, 10,000× g). l = 1 cm. ε—molar absorbance coefficient (Figure 1C).

E. coli = assay: Synergy of adjuvant-MCD with Lev-MCD, growth inhibition zones in agar; type: cell-based, Escherichia coli
Description: as §1, §2, §3, §4

C=CCc1ccc2c(c1)OCO2 [Safrole]
FICadjuvant (B. subtilis; CLev 0.4 μg/mL): 0.17 ± 0.02 mg/mL
Type of Interaction between Lev and X (B. subtilis; CLev 0.4 μg/mL): Synergism (synergism (<0.35))
D, diameter of bacterial inhibition zone surrounding Lev–MCD with APAB-MCD (B. subtilis; CLev 0.4 μg/mL): 14 mm
ϕLev = (D/DLev)^2 (B. subtilis; CLev 0.4 μg/mL): 1.4
FICI (B. subtilis; CLev 0.4 μg/mL, ±15%): 0.08
FICadjuvant (B. subtilis; CLev 0.7 μg/mL): 0.33 ± 0.03 mg/mL
Type of Interaction between Lev and X (B. subtilis; CLev 0.7 μg/mL): Synergism (synergism (<0.35))
D, diameter of bacterial inhibition zone surrounding Lev–MCD with APAB-MCD (B. subtilis; CLev 0.7 μg/mL): 16 mm
ϕLev = (D/DLev)^2 (B. subtilis; CLev 0.7 μg/mL): 1.1
FICI (B. subtilis; CLev 0.7 μg/mL, ±15%): 0.28
FICadjuvant (B. subtilis; CLev 1.5 μg/mL): 0.15 ± 0.02 mg/mL
Type of Interaction between Lev and X (B. subtilis; CLev 1.5 μg/mL): Synergism (synergism (<0.35))
D, diameter of bacterial inhibition zone surrounding Lev–MCD with APAB-MCD (B. subtilis; CLev 1.5 μg/mL): 20 mm
ϕLev = (D/DLev)^2 (B. subtilis; CLev 1.5 μg/mL): 1.4
FICI (B. subtilis; CLev 1.5 μg/mL, ±15%): 0.27
FICI (B. subtilis; with Lev): 0.08–0.11
EE, % ([1]; C(MCD) = 0.01 M, pH 6.2, 22 °C): 95 ± 4%
LC, % ([1]; C(MCD) = 0.01 M, pH 6.2, 22 °C): 8 ± 1%
EE, % ([1]; C(MCD) = 0.01 M, pH 6.2, 22 °C, listed as safrole): more than 90%
n ([1]; Xaq + n MCDaq ⇌ X·nMCDaq, 5 mM sodium phosphate buffer pH 6.2, 22 °C): 1.5 ± 0.2
solubility (physchem): 800 ± 100 µM (≈ 130 µg/mL)
MICLev in the presence of adjuvant (E. coli): 0.015 to 0.02 µg/mL
D, diameter of bacterial inhibition zone surrounding Lev–MCD with APAB-MCD (E. coli; E. coli, CLev 0.15 μg/mL, Lev-MCD + X-MCD (1:2), ±0.5): 14.5 mm
ϕLev = (D/DLev)^2 (E. coli; E. coli, CLev 0.15 μg/mL, ±0.1): 2.1
FICI (E. coli; E. coli, CLev 0.15 μg/mL, ±15%): 0.09
